Assay results from ChEMBL document CHEMBL3769376, “Discovery of I-BRD9, a Selective Cell Active Chemical Probe for Bromodomain Containing Protein 9 Inhibition” (J Med Chem, 2016).
Active and inactive are the calls of the source. The rule behind the calls is not given here.

Experiments:
[1] = target: T1, Bromodomain-containing protein 9 (Homo sapiens, UniProt Q9H8M2); assay: Inhibition of BRD9 (unknown origin) incubated in dark for 30 mins by TR-FRET assay
T1 sequence (Q9H8M2 whole entry): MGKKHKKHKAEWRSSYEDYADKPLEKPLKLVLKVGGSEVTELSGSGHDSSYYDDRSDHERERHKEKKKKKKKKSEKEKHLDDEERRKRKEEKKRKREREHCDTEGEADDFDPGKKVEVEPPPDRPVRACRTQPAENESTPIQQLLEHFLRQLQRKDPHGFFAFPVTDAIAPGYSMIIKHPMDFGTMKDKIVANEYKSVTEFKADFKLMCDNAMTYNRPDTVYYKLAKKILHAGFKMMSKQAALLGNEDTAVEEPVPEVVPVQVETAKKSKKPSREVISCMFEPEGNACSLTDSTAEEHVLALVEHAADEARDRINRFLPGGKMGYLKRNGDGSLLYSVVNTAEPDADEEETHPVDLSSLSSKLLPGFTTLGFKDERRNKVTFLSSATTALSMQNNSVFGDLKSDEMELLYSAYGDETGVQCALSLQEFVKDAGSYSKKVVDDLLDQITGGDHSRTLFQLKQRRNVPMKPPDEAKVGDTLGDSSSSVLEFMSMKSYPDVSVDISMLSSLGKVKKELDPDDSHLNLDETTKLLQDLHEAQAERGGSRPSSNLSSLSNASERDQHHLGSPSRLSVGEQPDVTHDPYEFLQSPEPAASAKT

[2] = target: Bromodomain-containing protein 4 (Homo sapiens, UniProt O60885); assay: Inhibition of BRD4 bromodomain 1 (unknown origin) incubated in dark for 30 mins by TR-FRET assay
[3] = Dissociation constant, pKa of the compound; type: physicochemical
[4] = target: T2, Bromodomain-containing protein 9 (Homo sapiens) (UniProt Q9H8M2); assay: Inhibition of BRD9 in human Kasumi-1 cells assessed as downregulation of SAMSN1 gene at 1 uM after 6 hrs by qPCR method; type: cell-based
T2 sequence (whole entry): T1 sequence (Q9H8M2 whole entry)

[5] = target: T2, Bromodomain-containing protein 9 (Homo sapiens); assay: Inhibition of BRD9 in human Kasumi-1 cells assessed as downregulation of DUSP6 gene at 1 uM after 6 hrs by qPCR method; type: cell-based
[6] = target: T2, Bromodomain-containing protein 9 (Homo sapiens); assay: Inhibition of BRD9 in human Kasumi-1 cells assessed as downregulation of FES gene at 1 uM after 6 hrs by qPCR method; type: cell-based
[7] = target: T2, Bromodomain-containing protein 9 (Homo sapiens); assay: Inhibition of BRD9 in human Kasumi-1 cells assessed as downregulation of CLEC1 gene at 1 uM after 6 hrs by qPCR method; type: cell-based

Q: Which IC50 [1] does the source give for `Cn1cc(-c2cccc(C#N)c2)c2sc(C(=N)NC3CCS(=O)(=O)CC3)cc2c1=O` here?
A: Its IC50 is 39.8 nM.

Q: And the IC50 [2]?
A: The IC50 was 2510 nM.

Q: Which IC50 [1] does the source give for `COc1cccc(-c2cn(C)c(=O)c3cc(C(=N)NC4CCS(=O)(=O)CC4)sc23)c1` here?
A: Its IC50 is 12.6 nM.

Q: What about the IC50 [2] of the same compound?
A: The IC50 was 794 nM.

Q: With `COc1ccc(-c2cn(C)c(=O)c3cc(C(=O)NC4CCS(=O)(=O)CC4)sc23)cc1OC` as the compound, how does the IC50 [1] read?
A: Its IC50 is 12.6 nM.

Q: What about the IC50 [2] of the same compound?
A: The IC50 was 50.1 nM.

Q: With `COc1ccc(-c2cn(C)c(=O)c3cc(C(=N)NC4CCS(=O)(=O)CC4)sc23)cc1OC` as the compound, how does the IC50 [1] read?
A: Its IC50 is 7.94 nM.

Q: What about the IC50 [2] of the same compound?
A: Its IC50 is 398 nM.

Q: What does the source list for `COc1ccc(-c2cn(C)c(=O)c3cc(C(=O)N(C)C)sc23)cc1OC`?
A: IC50 [1]: 5010 nM; IC50 [2]: 12600 nM

Q: With `CN(C)c1cccc(-c2cn(C)c(=O)c3cc(C(=N)NC4CCS(=O)(=O)CC4)sc23)c1` as the compound, how does the IC50 [1] read?
A: The IC50 was 10 nM.

Q: What about the IC50 [2] of the same compound?
A: The IC50 was 501 nM.

Q: Which IC50 [1] does the source give for `Cn1cc(-c2ccccc2)c2sc(C(=N)NC3CCS(=O)(=O)CC3)cc2c1=O` here?
A: Its IC50 is 39.8 nM.

Q: And the IC50 [2]?
A: The IC50 was 1580 nM.

Q: What does the source list for `COc1ccc(-c2cn(C)c(=O)c3cc(C(=O)N4CCN(S(C)(=O)=O)CC4)sc23)cc1OC`?
A: IC50 [1]: 200 nM; IC50 [2]: 20000 nM

Q: Which IC50 [1] does the source give for `Cn1cc(-c2cccc(C(F)(F)F)c2)c2sc(C(=N)NC3CCS(=O)(=O)CC3)cc2c1=O` here?
A: Its IC50 is 15.8 nM.

Q: And the pKa [3]?
A: Its pKa is 8.4.

Q: And the IC50 [2]?
A: The IC50 was 2510 nM.

Q: Which IC50 [1] does the source give for `COc1ccc(-c2cn(C)c(=O)c3cc(C(=O)N4CCCCC4)sc23)cc1OC` here?
A: The IC50 was 3980 nM.

Q: And the IC50 [2]?
A: Its IC50 is 15800 nM.

Q: Which results are given for `CC(C)n1cc(-c2cccc(C(F)(F)F)c2)c2sc(C(=N)NC3CCS(=O)(=O)CC3)cc2c1=O`?
A: IC50 [1]: 3160 nM; IC50 [2]: > 50100 nM

Q: For `CNC(=N)c1cc2c(=O)n(C)cc(-c3ccc(OC)c(OC)c3)c2s1`, which IC50 [1] is on record?
A: Its IC50 is 79.4 nM.

Q: What about the IC50 [2] of the same compound?
A: The IC50 was 1260 nM.

Q: Which results are given for `COc1cc2c(cc1-c1c(C)noc1C)ncc1[nH]c(=O)n([C@H](C)c3ccccn3)c12`?
A: inhibition [4]: inactive; inhibition [5]: inactive; inhibition [6]: inactive; inhibition [7]: inactive

Q: Which results are given for `CNC(=O)c1cc2c(=O)n(C)cc(-c3ccc(OC)c(OC)c3)c2s1`?
A: IC50 [1]: 126 nM; IC50 [2]: 200 nM
